From US7700618B2 (Pfizer Inc, priority 2006, dated 2010)

Target: T1, Human CB2 (Homo sapiens, UniProt P34972)
T1 construct: expressed in transfected cells; host or cells: CHO-K1 (Chinese hamster ovary K1) cells
Assay: Agonist-induced cAMP change in human CB2 transfected CHO-K1 cells
Assay type: cell-based
Conditions: forskolin 5 μM stimulated cAMP; for EC50: 30 min 37° C.
Procedure: Agonist-induced cAMP Change in Human CB2 Transfected CHO-K1 Cells
Human CB2 transfected Chinese hamster ovary-K1 (CHO-K1) cells were established and grown to 60-80% confluence. The medium was changed to F-12 medium containing 10% dialysed FBS, and the cells were incubated overnight. On the day of the assay, the cells were harvested with PBS/1 mM EDTA, centrifuged and washed with PBS. Cell pellets were resuspended in the incubation buffer (F-12 medium, 20 mM HEPES, 1 mM IBMX, 0.1 mM Ro-20-1724) at the concentration of 1×10^5 cells/ml and pre-incubated for 15 min at room temperature. The agonist samples were diluted from 10 mM stock solution in DMSO and dispensed into 96-well half-area plates (12.5 μl/well) with assay buffer (F-12, 20 mM HEPES). The reaction was initiated by adding the cells (25 μl/well) into the well containing forskolin (12.5 μL/well, final 5 μM) and diluted compounds. After incubation for 30 minutes at 37° C., cAMP-XL665 conjugated, and then the anti-cAMP-cryptase conjugate was added to the lysate (25 μl/well each). After further incubation for 60 minutes at room temperature, measurements were made on the Wallac 1420 ARVOsx multilabel counter (Excitation 320 nm, Emission 665 nm/620 nm, delay time 50 μs, window time 400 μs). Data analysis was made based on the ratio of fluorescence intensity of each well at 620 nm and 665 nm. The equation “sigmoldal dose-response” was used for the determination of EC50 and Emax values.

T1 sequence (P34972 whole entry): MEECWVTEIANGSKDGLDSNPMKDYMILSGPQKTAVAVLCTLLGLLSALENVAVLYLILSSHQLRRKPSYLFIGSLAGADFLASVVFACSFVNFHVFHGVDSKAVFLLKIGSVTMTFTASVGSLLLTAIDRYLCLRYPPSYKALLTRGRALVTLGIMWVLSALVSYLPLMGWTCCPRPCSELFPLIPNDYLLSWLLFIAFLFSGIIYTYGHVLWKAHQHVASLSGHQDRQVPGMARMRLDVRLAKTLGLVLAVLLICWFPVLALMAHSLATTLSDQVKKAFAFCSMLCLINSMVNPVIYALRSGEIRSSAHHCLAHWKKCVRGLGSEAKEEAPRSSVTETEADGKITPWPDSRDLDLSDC

Work on `CC(C)(C)Cc1nc2cc(S(=O)(=O)C(C)(C)C(=O)NCC(N)=O)ccc2n1CC1CC1` [Example 10] yielded an Emax of 109% and an EC50 of 3.64 nM.
Work on `CC(C)(C)Cc1nc2cc(S(=O)(=O)C(C)(C)C(N)=O)cnc2n1CC1CC1` [Example 5, 2-{[3-(Cyclopropylmethyl)-2-(2,2-dimethylpropyl)-3H-imidazo[4,5-b]pyridin-6-yl]sulfonyl}-2-methylpropanamide] yielded an Emax of 118% and an EC50 of 5.53 nM.
With `CC(C)(C)Cc1nc2cc(S(=O)(=O)C3(C(N)=O)CC3)ccc2n1CC1CC1` [Example 2, 1-{[1-(Cyclopropylmethyl)-2-(2,2-dimethylpropyl)-1H-benzimidazol-5-yl]sulfonyl}cyclopropanecarboxamide] the Emax was 160% and the EC50 was 0.15 nM.
For `CC(C)(C)Cc1nc2cc(S(=O)(=O)C(C)(C)CNC(N)=O)ccc2n1CC1CC1` [Example 17, N-(2-{[1-(Cyclopropylmethyl)-2-(2,2-dimethylpropyl)-1H-benzimidazol-5-yl]sulfonyl}-2-methylpropyl)urea], the Emax was 120% and the EC50 was 1.98 nM.
`CC(C)(C)Cc1nc2cc(S(=O)(=O)C3(C(N)=O)CCOCC3)ccc2n1CC1CC1` [Example 4, 4-{[1-(Cyclopropylmethyl)-2-(2,2-dimethylpropyl)-1H-benzimidazol-5-yl]sulfonyl}tetrahydro-2H-pyran-4-carboxamide] showed an Emax of 114% and an EC50 of 1.31 nM.
For `CC(C)(C)c1nc2cc(S(=O)(=O)C(C)(C)C(N)=O)ccc2n1CC1(O)CCCC1` [Example 12, 2-({2-tert-Butyl-1-[(1-hydroxycyclopentyl)methyl]-1H-benzimidazol-5-yl}sulfonyl)-2-methylpropanamide], the Emax was 133% and the EC50 was 5.34 nM.
`CC(=O)NC(C)(C)CS(=O)(=O)c1ccc2c(c1)nc(CC(C)(C)C)n2CC1CC1` [Example 19, N-(2-{[1-(Cyclopropylmethyl)-2-(2,2-dimethylpropyl)-1H-benzimidazol-5-yl]sulfonyl}-1,1-dimethylethyl)acetamide] showed an Emax of 110% and an EC50 of 3.77 nM.
Work on `CC(C)(C)Cc1nc2cc(S(=O)(=O)C(C)(C)C(N)=O)ccc2n1CC1CC1` [Example 1, 2-{[1-(Cyclopropylmethyl)-2-(2,2-dimethylpropyl)-1H-benzimidazol-5-yl]sulfonyl}-2-methylpropanamide] yielded an Emax of 118% and an EC50 of 0.91 nM.
In the case of `CC(=O)NCC(C)(C)S(=O)(=O)c1ccc2c(c1)nc(CC(C)(C)C)n2CC1CC1` [Example 13, N-(2-{[1-(Cyclopropylmethyl)-2-(2,2-dimethylpropyl)-1H-benzimidazol-5-yl]sulfonyl}-2-methylpropyl)acetamide], the Emax is reported as 113% and the EC50 is reported as 5.24 nM.
Work on `CN(C)C(=O)NCC(C)(C)S(=O)(=O)c1ccc2c(c1)nc(CC(C)(C)C)n2CC1CC1` [Example 15, N′-(2-{[1-(Cyclopropylmethyl)-2-(2,2-dimethylpropyl)-1H-benzimidazol-5-yl]sulfonyl}-2-methylpropyl)-N,N-dimethylurea] yielded an Emax of 113% and an EC50 of 8.31 nM.
Molecule `CC(C)(C)Cc1nc2cc(S(=O)(=O)C(C)(C)C(=O)N3CCOCC3)ccc2n1CC1CC1` [Example 6, 1-(Cyclopropylmethyl)-5-[(1,1-dimethyl-2-morpholin-4-yl-2-oxoethyl)sulfonyl]-2-(2,2-dimethylpropyl)-1H-benzimidazole] has an Emax of 136% and an EC50 of 2.96 nM.
`CC(C)(C)Cc1nc2cc(S(=O)(=O)CC(C)(C)NC(N)=O)ccc2n1CC1CC1` [Example 18, N-(2-{[1-(Cyclopropylmethyl)-2-(2,2-dimethylpropyl)-1H-benzimidazol-5-yl]sulfonyl}-1,1-dimethylethyl)urea] was tested, and the Emax was 109% and the EC50 was 26.4 nM.
In the case of `CNC(=O)C(C)(C)S(=O)(=O)c1ccc2c(c1)nc(CC(C)(C)C)n2CC1CC1` [Example 8, 2-{[1-(Cyclopropylmethyl)-2-(2,2-dimethylpropyl)-1H-benzimidazol-5-yl]sulfonyl}-N,2-dimethylpropanamide], the Emax is reported as 129% and the EC50 is reported as 6.68 nM.
In the case of `CC(C)(C)Cc1nc2cc(S(=O)(=O)C3(C(N)=O)CCC3)ccc2n1CC1CC1` [Example 3, 1-{[1-(Cyclopropylmethyl)-2-(2,2-dimethylpropyl)-1H-benzimidazol-5-yl]sulfonyl}cyclobutanecarboxamide], the Emax is reported as 121% and the EC50 is reported as 0.45 nM.
With `CN(C)C(=O)C(C)(C)S(=O)(=O)c1ccc2c(c1)nc(CC(C)(C)C)n2CC1CC1` [Example 7, 2-{[1-(Cyclopropylmethyl)-2-(2,2-dimethylpropyl)-1H-benzimidazol-5-yl]sulfonyl}-N,N,2-trimethylpropanamide] the Emax was 141% and the EC50 was 1.34 nM.
With `CC(C)(C)Cc1nc2cc(S(=O)(=O)C(C)(C)C(=O)NCCO)ccc2n1CC1CC1` [Example 9, 2-{[1-(Cyclopropylmethyl)-2-(2,2-dimethylpropyl)-1H-benzimidazol-5-yl]sulfonyl}-N-(2-hydroxyethyl)-2-methylpropanamide] the Emax was 127% and the EC50 was 1.13 nM.
`CC(C)(C)Cc1nc2cc(S(=O)(=O)C(C)(C)C(=O)NCCN)ccc2n1CC1CC1` [Example 11] showed an Emax of 117% and an EC50 of 13.7 nM.
`CC(C)(C)Cc1nc2cc(S(=O)(=O)C(C)(C)CNS(C)(=O)=O)ccc2n1CC1CC1` [Example 14, N-(2-{[1-(Cyclopropylmethyl)-2-(2,2-dimethylpropyl)-1H-benzimidazol-5-yl]sulfonyl}-2-methylpropyl)methanesulfonamide] showed an Emax of 120% and an EC50 of 1.59 nM.
Work on `CNC(=O)NCC(C)(C)S(=O)(=O)c1ccc2c(c1)nc(CC(C)(C)C)n2CC1CC1` [Example 16, N-(2-{[1-(Cyclopropylmethyl)-2-(2,2-dimethylpropyl)-1H-benzimidazol-5-yl]sulfonyl}-2-methylpropyl)-N′-methylurea] yielded an Emax of 109% and an EC50 of 1.22 nM.
